Assay results as given in ChEMBL document CHEMBL1212725, “Enzymatic transition states and dynamic motion in barrier crossing” (Nat Chem Biol, 2009).

How the values were obtained:
[1] = target: T1, Purine nucleoside phosphorylase (Homo sapiens, UniProt P00491); assay: Binding affinity to human PNP
T1 sequence (P00491 whole entry): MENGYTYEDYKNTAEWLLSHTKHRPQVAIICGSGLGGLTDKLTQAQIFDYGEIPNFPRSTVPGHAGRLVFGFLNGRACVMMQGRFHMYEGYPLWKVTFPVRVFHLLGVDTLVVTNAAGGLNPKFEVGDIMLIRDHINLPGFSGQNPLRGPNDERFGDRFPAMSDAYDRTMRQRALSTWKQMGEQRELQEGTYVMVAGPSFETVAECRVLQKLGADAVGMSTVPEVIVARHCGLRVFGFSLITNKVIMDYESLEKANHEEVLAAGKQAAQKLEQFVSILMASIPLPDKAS

[2] = target: T2, Purine nucleoside phosphorylase (Homo sapiens) (UniProt P00491); assay: Binding affinity to human PNP assessed as kinetic isotope effect; settings: tested as the 3H-labelled form
T2 sequence (whole entry): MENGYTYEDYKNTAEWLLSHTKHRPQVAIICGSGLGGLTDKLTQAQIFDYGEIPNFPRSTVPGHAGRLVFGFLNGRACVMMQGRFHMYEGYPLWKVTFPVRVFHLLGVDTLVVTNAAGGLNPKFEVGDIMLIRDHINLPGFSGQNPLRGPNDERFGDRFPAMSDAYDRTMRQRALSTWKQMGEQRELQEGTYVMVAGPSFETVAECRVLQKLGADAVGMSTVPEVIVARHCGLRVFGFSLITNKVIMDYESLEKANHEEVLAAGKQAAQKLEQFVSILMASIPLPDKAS

[3] = substrate: O=c1[nH]cnc2c1ncn2[C@@H]1O[C@H](CO)[C@@H](O)[C@H]1O; assay: Activity at human PNP

Molecule: [3H]C(O)[C@H]1CN(Cc2c[nH]c3c(=O)[nH]cnc23)C[C@@H]1O (stereo partly drawn)
- Kd [1]: 8.5 pM

Molecule: O=c1[nH]cnc2c1ncn2[C@@H]1O[C@H](CO)[C@@H](O)[C@H]1O
- Activity [2]: 4.7%

B1: Purine nucleoside phosphorylase (Homo sapiens), P00491 (protein)
chain: MENGYTYEDYKNTAEWLLSHTKHRPQVAIICGSGLGGLTDKLTQAQIFDYGEIPNFPRSTVPGHAGRLVFGFLNGRACVMMQGRFHMYEGYPLWKVTFPVRVFHLLGVDTLVVTNAAGGLNPKFEVGDIMLIRDHINLPGFSGQNPLRGPNDERFGDRFPAMSDAYDRTMRQRALSTWKQMGEQRELQEGTYVMVAGPSFETVAECRVLQKLGADAVGMSTVPEVIVARHCGLRVFGFSLITNKVIMDYESLEKANHEEVLAAGKQAAQKLEQFVSILMASIPLPDKAS
- Km [3]: 40 µM
